According to patent US11702422B2, “Imidazopyridazines as modulators of IL-17” (Janssen Pharmaceutica NV, priority 2020, dated 2023):

Experiments:
[1] = system: IL-17A-induced G-CSF production in human normal keratinocyte (NHK); experiment: NHK Assay: IL-17A-induced G-CSF production in human normal keratinocytes; type: cell-based; settings: 24 h, adult normal human keratinocytes, IL-17A 5 ng/mL, simple average if tested more than once
Outline: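 IL-17A (5 ng/mL final) was pre-incubated 1 h at rt with titrated compound and then added to adult normal human keratinocytes (5% FBS, 0.2% DMSO) for 24 h at 37° C. Supernatant G-CSF was measured by HTRF against a standard curve to derive IC50. Viability was checked by CellTiter-Glo.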

[2] = molecular target: IL-17A(FLAG-Tagged): IL-17RA(His-Tagged) (Homo sapiens, UniProt Q16552, K93Q); experiment: IL-17A(FLAG-Tagged): IL-17RA(His-Tagged) Binding Disruption Eu-HTRF Assay; settings: IL-17A/IL-17RA binding disruption, simple average if tested more than once
Outline: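 IC50 comes from a one-site competition fit of the HTRF 665/620 nm ratio. Compound dilutions (2-fold, 22 points) were held 1 h rt with FLAG-tagged IL-17A dimer, then His-tagged IL-17RA plus Eu-cryptate anti-FLAG and D2 anti-His antibodies were added for 2 h rt.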

Sequence of UniProt Q16552 (Q16552 with tags, fused parts or gaps K93Q): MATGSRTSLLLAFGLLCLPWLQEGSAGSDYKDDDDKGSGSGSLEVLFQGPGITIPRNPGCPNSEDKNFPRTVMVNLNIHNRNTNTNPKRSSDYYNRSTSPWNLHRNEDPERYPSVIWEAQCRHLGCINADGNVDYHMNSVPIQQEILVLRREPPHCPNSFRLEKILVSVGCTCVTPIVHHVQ

Structure (SMILES) | IC50 [2] | IC50 ([1]; Homo sapiens, Keratinocyte) | IC50 [1]
CC(C)n1nccc1C(=O)N[C@@H](CC(C)(C)C(F)(F)F)c1cn2ncc([C@H](NC(=O)CC3CC(F)(F)C3)C3CC3)cc2n1 [Example 543, N—((S)-1-(7-((R)-Cyclopropyl(2-(3,3-difluorocyclobutyl)acetamido)methyl)imidazo[1,2-b]pyridazin-2-yl)-4,4,4-trifluoro-3,3-dimethylbutyl)-1-isopropyl-1H-pyrazole-5-carboxamide] | 0.18 µM | 0.072 µM | –
CC(C)n1nccc1C(=O)N[C@H](c1cn2ncc([C@H](NC(=O)COCC(F)F)C3CC3)cc2n1)C1CCC(F)(F)CC1 [Example 305, N—((S)-(7-((R)-Cyclopropyl(2-(2,2-difluoroethoxy)acetamido)methyl)imidazo[1,2-b]pyridazin-2-yl)(4,4-difluorocyclohexyl)methyl)-1-isopropyl-1H-pyrazole-5-carboxamide] | 0.14 µM | 1.1 µM | –
N#Cc1ccccc1C(=O)N[C@H](c1cn2ncc([C@H](NC(=O)CCC(F)(F)F)C3CC3)cc2n1)C1CCC(F)(F)CC1 [Example 208, 2-Cyano-N—((S)-(7-((R)-cyclopropyl(4,4,4-trifluorobutanamido)methyl)imidazo[1,2-b]pyridazin-2-yl)(4,4-difluorocyclohexyl)methyl)benzamide] | 5.3 µM | > 20 µM | –
O=C(CCC(F)F)N[C@@H](c1cnn2cc([C@@H](NC(=O)c3nonc3OCC(F)F)C3CCC(F)(F)CC3)nc2c1)C1CC1 [Example 390, N—((S)-(7-((R)-Cyclopropyl(4,4-difluorobutanamido)methyl)imidazo[1,2-b]pyridazin-2-yl)(4,4-difluorocyclohexyl)methyl)-4-(2,2-difluoroethoxy)-1,2,5-oxadiazole-3-carboxamide] | 0.086 µM | 0.13 µM | –
CC(CC(=O)N[C@@H](c1cnn2cc([C@@H](NC(=O)c3conc3C3CC3)C3CCC(F)(F)CC3)nc2c1)C1CC1)C(F)(F)F (single isomer, unassigned) [Example 128, 3-Cyclopropyl-N—((S)-(7-((R)-cyclopropyl((R*)-4,4,4-trifluoro-3-methylbutanamido)methyl)imidazo[1,2-b]pyridazin-2-yl)(4,4-difluorocyclohexyl)methyl)isoxazole-4-carboxamide] | 0.032 µM | – | 0.096 µM
O=C(CCC(F)(F)F)N[C@@H](c1cnn2cc([C@@H](NC(=O)c3conc3CCF)C3CCC(F)(F)CC3)nc2c1)C1CC1 [Example 99, N—[(S)-[7-[(R)-Cyclopropyl-(4,4,4-trifluorobutanoylamino)methyl]imidazo[1,2-b]pyridazin-2-yl]-(4,4-difluorocyclohexyl)methyl]-3-(2-fluoroethyl)isoxazole-4-carboxamide] | 0.057 µM | 0.06 µM | –
CC(C)c1scnc1C(=O)N[C@H](c1cn2ncc([C@H](NC(=O)CCC(F)(F)F)C3CC3)cc2n1)C1CCC(F)(F)CC1 [Example 480, N—((S)-(7-((R)-Cyclopropyl(4,4,4-trifluorobutanamido)methyl)imidazo[1,2-b]pyridazin-2-yl)(4,4-difluorocyclohexyl)methyl)-5-isopropylthiazole-4-carboxamide] | 0.14 µM | 0.47 µM | –
Cc1nonc1C(=O)N[C@H](c1cn2ncc([C@H](NC(=O)CC3CC(F)(F)C3(F)F)C3CC3)cc2n1)C1CCC(F)(F)CC1 (single isomer, unassigned) [Example 325, N—((S)-(7-((R)-Cyclopropyl(2-((S*)-2,2,3,3-tetrafluorocyclobutyl)acetamido)methyl)imidazo[1,2-b]pyridazin-2-yl)(4,4-difluorocyclohexyl)methyl)-4-methyl-1,2,5-oxadiazole-3-carboxamide] | 0.091 µM | – | 0.3 µM
CC(C)n1nccc1C(=O)N[C@H](c1cn2ncc([C@H](NC(=O)COC3CC(F)(F)C3)C3CC3)cc2n1)C1CCC(F)(F)CC1 [Example 309, N—((S)-(7-((R)-Cyclopropyl(2-(3,3-difluorocyclobutoxy)acetamido)methyl)imidazo[1,2-b]pyridazin-2-yl)(4,4-difluorocyclohexyl)methyl)-1-isopropyl-1H-pyrazole-5-carboxamide] | 0.1 µM | 0.29 µM | –

More lines, in order of falling IC50 [2], values ahead:

IC50 [2] | Structure (SMILES) | IC50 ([1]; Homo sapiens, Keratinocyte) | IC50 [1]
0.71 µM | Cc1nonc1C(=O)N[C@H](c1cn2ncc(C(CC#N)NC(=O)CC3CC(F)(F)C3)cc2n1)C1CCC(F)(F)CC1 (single isomer, unassigned) [Example 446, N—((S)-(7-((R*)-2-Cyano-1-(2-(3,3-difluorocyclobutyl)acetamido)ethyl)imidazo[1,2-b]pyridazin-2-yl)(4,4-difluorocyclohexyl)methyl)-4-methyl-1,2,5-oxadiazole-3-carboxamide] | – | 8.8 µM
0.41 µM | O=C(CCC(F)(F)F)N[C@@H](c1cnn2cc([C@@H](NC(=O)c3nnn(C4CC4)c3C(F)F)C3CCC(F)(F)CC3)nc2c1)C1CC1 [Example 110, 1-Cyclopropyl-N—((S)-(7-((R)-cyclopropyl(4,4,4-trifluorobutanamido)methyl)imidazo[1,2-b]pyridazin-2-yl)(4,4-difluorocyclohexyl)methyl)-5-(difluoromethyl)-1H-1,2,3-triazole-4-carboxamide] | > 20 µM | –
0.37 µM | O=C(CCC(F)(F)F)N[C@@H](c1cnn2cc([C@@H](NC(=O)c3cn(CC4CC(F)(F)C4(F)F)nn3)C3CCC(F)(F)CC3)nc2c1)C1CC1 (stereo partly drawn) [Example 96, N—((S)-(7-((R)-Cyclopropyl(4,4,4-trifluorobutanamido)methyl)imidazo[1,2-b]pyridazin-2-yl)(4,4-difluorocyclohexyl)methyl)-1-((2,2,3,3-tetrafluorocyclobutyl)methyl)-1H-1,2,3-triazole-4-carboxamide] | 2.2 µM | –
0.35 µM | CCc1ccccc1C(=O)N[C@H](c1cn2ncc([C@H](NC(=O)CCC(F)(F)F)C3CC3)cc2n1)C1CCC(F)(F)CC1 [Example 41, N—((S)-(7-((R)-Cyclopropyl(4,4,4-trifluorobutanamido)methyl)imidazo[1,2-b]pyridazin-2-yl)(4,4-difluorocyclohexyl)methyl)-2-ethylbenzamide] | 2 µM | –
0.34 µM | CCOCC(NC(=O)CC1CC(F)(F)C1)c1cnn2cc([C@@H](NC(=O)c3ccnn3C(C)C)C3CCC(F)(F)CC3)nc2c1 (single isomer, unassigned) [Example 529, N—((S)-(7-((S*)-1-(2-(3,3-Difluorocyclobutyl)acetamido)-2-ethoxyethyl)imidazo[1,2-b]pyridazin-2-yl)(4,4-difluorocyclohexyl)methyl)-1-isopropyl-1H-pyrazole-5-carboxamide] | – | 0.12 µM
0.31 µM | CO[C@@H](C)[C@@H](NC(=O)CC1CC(F)(F)C1)c1cnn2cc([C@@H](NC(=O)c3ccnn3C(C)C)C3CCC(F)(F)CC3)nc2c1 [Example 322, N—((S)-(7-((1S,2S)-1-(2-(3,3-Difluorocyclobutyl)acetamido)-2-methoxypropyl)imidazo[1,2-b]pyridazin-2-yl)(4,4-difluorocyclohexyl)methyl)-1-isopropyl-1H-pyrazole-5-carboxamide] | 0.096 µM | –
0.26 µM | Cc1cc(C(=O)N[C@H](c2cn3ncc([C@H](NC(=O)CCC(F)(F)F)C4CC4)cc3n2)C2CCC(F)(F)CC2)n(C(C)C)n1 [Example 78, N—((S)-(7-((R)-Cyclopropyl(4,4,4-trifluorobutanamido)methyl)imidazo[1,2-b]pyridazin-2-yl)(4,4-difluorocyclohexyl)methyl)-1-isopropyl-3-methyl-1H-pyrazole-5-carboxamide] | 0.33 µM | –
0.25 µM | CC(CC(=O)N[C@@H](c1cnn2cc([C@@H](NC(=O)c3conc3OCC(F)F)C3CCC(F)(F)CC3)nc2c1)C1CC1)C(F)(F)F (single isomer, unassigned) [Example 298, N—((S)-(7-((R)-Cyclopropyl((R*)-4,4,4-trifluoro-3-methylbutanamido)methyl)imidazo[1,2-b]pyridazin-2-yl)(4,4-difluorocyclohexyl)methyl)-3-(2,2-difluoroethoxy)isoxazole-4-carboxamide] | 0.61 µM | –
0.23 µM | O=C(CCC(F)(F)F)N[C@@H](c1cnn2cc([C@@H](NC(=O)c3cc(C(F)F)ncn3)C3CCC(F)(F)CC3)nc2c1)C1CC1 [Example 199, N—((S)-(7-((R)-Cyclopropyl(4,4,4-trifluorobutanamido)methyl)imidazo[1,2-b]pyridazin-2-yl)(4,4-difluorocyclohexyl)methyl)-6-(difluoromethyl)pyrimidine-4-carboxamide] | 2 µM | –
0.13 µM | O=C(CCC(F)(F)F)N[C@@H](c1cnn2cc([C@@H](NC(=O)c3ccnn3C3CC3)C3CCC(F)(F)CC3)nc2c1)C1CC1 [Example 240, 1-Cyclopropyl-N—((S)-(7-((R)-cyclopropyl(4,4,4-trifluorobutanamido)methyl)imidazo[1,2-b]pyridazin-2-yl)(4,4-difluorocyclohexyl)methyl)-1H-pyrazole-5-carboxamide] | 0.21 µM | –
0.024 µM | CC(C)c1nonc1C(=O)N[C@H](c1cn2ncc([C@H](NC(=O)CC3CC(F)(F)C3)C3CC3)cc2n1)C1CCC(F)(F)CC1 [Example 281, N—((S)-(7-((R)-Cyclopropyl(2-(3,3-difluorocyclobutyl)acetamido)methyl)imidazo[1,2-b]pyridazin-2-yl)(4,4-difluorocyclohexyl)methyl)-4-isopropyl-1,2,5-oxadiazole-3-carboxamide] | 0.026 µM | –
